Legend:
Test in all cases: Glasshouse herbicidal test, pre- and post-emergence, percentage damage to the plant
Type in all cases: in vivo
[1] = system: Echinochloa crus-galli (ECHCG); conditions: 250 g/h, evaluated after 13 days; for ECHCG POST percentage damage caused to the plant (five-point scale): post-emergence; for ECHCG PRE percentage damage caused to the plant (five-point scale): pre-emergence
Description: (§1) Seeds of a variety of test species are sown in standard soil in pots (Lolium perenne (LOLPE), Setaria faberi (SETFA), Alopecurus myosuroides (ALOMY), Echinochloa crus-galli (ECHCG), Avena fatua (AVEFA)). After cultivation for one day (pre-emergence) or after 8 days cultivation (post-emergence) under controlled conditions in a glasshouse (at 24/16° C., day/night; 14 hours light; 65% humidity), the plants are sprayed with an aqueous spray solution derived from the formulation of the technical active ingredient in acetone/water (50:50) solution containing 0.5% Tween 20 (polyoxyethelyene sorbitan monolaurate, CAS RN 9005-64-5). Compounds are applied at 250 g/h. The test plants are then grown in a glasshouse under controlled conditions in a glasshouse (at 24/16° C., day/night; 14 hours light; 65% humidity) and watered twice daily. After 13 days for pre and post-emergence, the test is evaluated for the percentage damage caused to the plant. The biological activities are shown in the following table on a five-point scale (5=80-100%; 4=60-79%; 3=40-59%; 2=20-39%; 1=0-19%).

Avena fatua (AVEFA) = conditions: 250 g/h, evaluated after 13 days; for AVEFA POST percentage damage caused to the plant (five-point scale): post-emergence; for AVEFA PRE percentage damage caused to the plant (five-point scale): pre-emergence
Description: as §1

[2] = system: Alopecurus myosuroides (ALOMY); conditions: 250 g/h, evaluated after 13 days; for ALOMY POST percentage damage caused to the plant (five-point scale): post-emergence; for ALOMY PRE percentage damage caused to the plant (five-point scale): pre-emergence
Description: as §1

Lolium perenne (LOLPE) = conditions: 250 g/h, evaluated after 13 days; for LOLPE POST percentage damage caused to the plant (five-point scale): post-emergence; for LOLPE PRE percentage damage caused to the plant (five-point scale): pre-emergence
Description: as §1

Setaria faberi (SETFA) = conditions: 250 g/h, evaluated after 13 days; for SETFA POST percentage damage caused to the plant (five-point scale): post-emergence; for SETFA PRE percentage damage caused to the plant (five-point scale): pre-emergence
Description: as §1

Compound	ECHCG POST percentage damage caused to the plant (five-point scale) [1]	ECHCG PRE percentage damage caused to the plant (five-point scale) [1]	AVEFA POST percentage damage caused to the plant (five-point scale) (Avena fatua (AVEFA))	AVEFA PRE percentage damage caused to the plant (five-point scale) (Avena fatua (AVEFA))	ALOMY POST percentage damage caused to the plant (five-point scale) [2]	ALOMY PRE percentage damage caused to the plant (five-point scale) [2]	LOLPE POST percentage damage caused to the plant (five-point scale) (Lolium perenne (LOLPE))	LOLPE PRE percentage damage caused to the plant (five-point scale) (Lolium perenne (LOLPE))	SETFA POST percentage damage caused to the plant (five-point scale) (Setaria faberi (SETFA))	SETFA PRE percentage damage caused to the plant (five-point scale) (Setaria faberi (SETFA))
CC#Cc1cc(C)c(C2C(=O)CC3(CCN(C(C)=O)CC3C)CC2=O)c(C)c1 (stereo not drawn) [Compound A59]	5 (5=80-100%)	5 (5=80-100%)	5 (5=80-100%)	5 (5=80-100%)	5 (5=80-100%)	5 (5=80-100%)	5 (5=80-100%)	5 (5=80-100%)	5 (5=80-100%)	5 (5=80-100%)
CC#Cc1cc(C)c(C2=C(OC(C)=O)CC3(CCCN(C(C)=O)CC3)CC2=O)c(C)c1 (stereo not drawn) [Compound P1]	5 (5=80-100%)	5 (5=80-100%)	5 (5=80-100%)	5 (5=80-100%)	5 (5=80-100%)	5 (5=80-100%)	5 (5=80-100%)	5 (5=80-100%)	5 (5=80-100%)	5 (5=80-100%)
CC#Cc1cc(C)c(C2=C(OC(C)=O)CC3(CCN(C(C)=O)C(=O)C3)CC2=O)c(C)c1 (stereo not drawn) [Compound P2]		5 (5=80-100%)	5 (5=80-100%)	5 (5=80-100%)	5 (5=80-100%)	5 (5=80-100%)	5 (5=80-100%)	5 (5=80-100%)	5 (5=80-100%)	5 (5=80-100%)
CC#Cc1cc(C)c(C2=C(OC(=O)OC)CC3(CCN(C(C)=O)C3)CC2=O)c(C)c1 (stereo not drawn) [Compound P3]	5 (5=80-100%)	5 (5=80-100%)	5 (5=80-100%)	4 (4=60-79%)	5 (5=80-100%)	5 (5=80-100%)	5 (5=80-100%)	5 (5=80-100%)	5 (5=80-100%)	5 (5=80-100%)

Reference: US12479804B2, “Herbicidal compounds” (SYNGENTA CROP PROTECTION AG, priority 2019, dated 2025)
